Counter-ions that a name gives are not always drawn. Like-named read-outs stand apart in the source and are kept apart here.
Molecular target: T1, human IBAT (Homo sapiens, UniProt Q12908)
T1 construct: expressed in transfected cells; host or cells: Baby hamster kidney (BHK) cells, clone H14
T1 sequence (Q12908 1-348): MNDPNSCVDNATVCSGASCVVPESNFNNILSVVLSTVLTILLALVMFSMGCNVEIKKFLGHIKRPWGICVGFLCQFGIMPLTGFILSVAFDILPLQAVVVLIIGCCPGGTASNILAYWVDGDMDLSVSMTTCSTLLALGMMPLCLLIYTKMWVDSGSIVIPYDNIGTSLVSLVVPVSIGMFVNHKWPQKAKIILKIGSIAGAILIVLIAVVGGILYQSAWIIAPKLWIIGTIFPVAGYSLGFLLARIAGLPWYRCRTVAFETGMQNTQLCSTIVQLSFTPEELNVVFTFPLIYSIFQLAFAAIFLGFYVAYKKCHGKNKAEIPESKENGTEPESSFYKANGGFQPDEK
Assay: In vitro assay of IBAT-mediated uptake of [14C]-taurocholate (TC) in H14 cells
Assay type: cell-based
Conditions: for inhibition at 100 µM: read-out: In vitro % Inhibition of TC Uptake @ 100 uM
How it was run: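 BHK cells stably expressing human IBAT (H14) were incubated 2 h at 37° C with compound and 3 μM final [14C]-taurocholate in DMEM (4.5 g/L glucose) plus 0.2% fatty acid-free BSA. After cold PBS washes, cell-associated radioactivity was measured by scintillation counting.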

Row | Structure (SMILES) | IC50 (read-out: Human TC IC50) | also measured
1 | CCCC[C@]1(CC)CS(=O)(=O)c2ccccc2[C@@H](c2ccc(I)cc2)[C@H]1O [Example 42, (3α,4β,5β) 3-Butyl-3-ethyl-4-hydroxy-5-(4-iodophenyl)-2,3,4,5-tetrahydrobenzothiepine-1,1-dioxide] |  | IC50 (H14 cells, Table 5, read-out: IC50 uM (In vitro Taurocholate Cell Uptake)): 1.5 µM
2 | CCCC[C@]1(CC)CS(=O)(=O)c2ccc(N)cc2[C@@H](c2ccc(OCCOCCOCCI)cc2)[C@H]1O [Example 295] | 1.3 µM | 
3 | CCCC[C@]1(CC)CS(=O)(=O)c2ccc(N)cc2[C@@H](c2ccc(OCCOCCOCCOc3ccc([C@H]4c5cc(N)ccc5S(=O)(=O)C[C@](CC)(CCCC)[C@H]4O)cc3)cc2)[C@H]1O [Example 112] | 3 µM | 
4 | CCCCC1(CCCC)CS(=O)(=O)c2cc(Br)c(NC)cc2C(c2ccccc2)C1O (stereo not shown) [Example 1223] | 0.28 µM | 
5 | CCCCC1(CCCC)CS(=O)(=O)c2ccc(F)cc2C(c2ccc(F)cc2)C1O (stereo not shown) [Example 1185] | 0.28 µM | 
6 | CCCCC1(CC)CS(=O)(=O)c2ccc(F)cc2C(c2ccc(F)cc2)C1O (single isomer, unassigned) [Example 273] | 1.9 µM | 
7 | CCCCC1(CC)C=C(c2ccccc2)c2ccccc2SC1 (stereo not shown) [Example 3, 3-Butyl-3-ethyl-5-phenyl-2,3-dihydrobenzothiepine] |  | inhibition at 100 µM: 0%
8 | CCCCC1(CCCC)CS(=O)(=O)c2ccc(N(C)C)cc2[C@@H](c2ccc(OCc3cc[n+](C)cc3)cc2)[C@H]1O [Example 1428, (4R-cis)-4-[[4-[3,3-Dibutyl-7-(dimethylamino)-2,3,4,5-tetrahydro-4-hydroxy-1,1-dioxido-1,1-dioxido-1-benzothiepin-5-yl]phenoxy]methyl]-1-methylpyridinium salt with trifluoroacetic acid (1:1)] |  | IC50 (In Vitro Taurocholate Uptake, Table 10, read-out: Human TC IC50): 0.0007 µM
9 | CCCC1(CCC)CS(=O)(=O)c2ccc(N)cc2[C@@H](c2ccccc2)[C@H]1O [Example 289] | 0.23 µM | 
10 | CCCCC1(CCCC)CS(=O)(=O)c2ccc([N+](C)(C)C)cc2C(c2ccccc2)C1O (stereo not shown) [Example 1180] | 0.2 µM | 
11 | CCCCC1(CCCC)CS(=O)(=O)c2ccc(N(C)C)cc2C(c2cccc(OCCOCCOCC[N+](C)(C)C3CC(C)(C)N(C)C(C)(C)C3)c2)C1O (stereo not shown) [Example 1370] | 0.002 µM | 
12 | CCCCC1(CC)CS(=O)(=O)c2ccc(N(C)C)cc2C(c2ccc(OC)cc2)C1O (stereo not shown) [Example 1089] | 0.0057 µM | 
13 | CCCCC1(CCCC)CS(=O)(=O)c2c(F)cc(F)cc2C(c2ccc(F)cc2)C1O (stereo not shown) [Example 1184] | 0.28 µM | 
14 | CCCCC1(CCCC)CS(=O)(=O)c2ccc(C)cc2CC1O (stereo not shown) [Example 1201] | 8.3 µM | 
15 | CCCCCCCC[N+](CCCCCCCC)(CCCCCCCC)CCOCCOCCOc1cccc(C2c3cc(N(C)C)ccc3S(=O)(=O)CC(CCCC)(CCCC)C2O)c1 (stereo not shown) [Example 1289] | 0.026 µM | 
16 | CCCCC1(CC)CS(=O)(=O)c2ccc(OC)cc2C(c2cccc(O)c2)C1O (stereo not shown) [Example 267] | 0.073 µM | 
17 | CCCCC1(CCCC)CS(=O)(=O)c2ccc(NCC)cc2C(c2ccc(F)cc2)C1O (stereo not shown) [Example 1149] | 0.03 µM | 
18 | CCCCCCNc1ccc2c(c1)[C@H](c1ccccc1)[C@H](O)[C@](CC)(CCCC)CS2(=O)=O [Example 40, (3α,4α,5α) 3-Butyl-3-ethyl-7-(n-hexylamino)-4-hydroxy-5-phenyl-2,3,4,5-tetrahydrobenzothiepine-1,1-dioxide] |  | inhibition at 50 µM (50 μM): 49%
19 | CCCC[C@]1(CC)CS(=O)(=O)c2ccccc2[C@H]2O[C@H]21 [Example 19b] |  | inhibition at 100 µM: 15%
20 | CCCCC1(CCCC)CS(=O)(=O)c2ccc(OC)cc2C(c2ccc(F)cc2)C1O (stereo not shown) [Example 1204] | 0.05 µM | 
21 | CCCCC1(CC)CS(=O)(=O)c2ccc(N3CCC3)cc2C(c2ccc(F)cc2)C1O (stereo not shown) [Example 144] | 0.053 µM | 
22 | CCCCC1(CCCC)CS(=O)(=O)c2c(cc(N(C)C)cc2N(C)C)C(c2ccccc2)C1O (stereo not shown) [Example 1069] | 0.004 µM | 
23 | CCCCC1(CC)CS(=O)(=O)c2ccc(OC)cc2C(c2cccc(OC)c2)C1O (single isomer, unassigned) [Example 262] | 0.07 µM | 
24 | CCCCC1(CCCC)CS(=O)(=O)c2c(cccc2N2CCOCC2)C(c2ccc(OC)cc2)C1O (single isomer, unassigned) [Example 1307] | 3.1 µM | 
25 | CCCCC1(CCCC)CS(=O)(=O)c2ccc(NC(C)C)cc2C(c2cccc(OC)c2)C1O (stereo not shown) [Example 1220] | 0.2 µM | 

The next lines start with results.

Row | IC50 (read-out: Human TC IC50) | Structure (SMILES) | also measured
26 | 0.002 µM | CCCCC1(CCCC)CS(=O)(=O)c2ccc(N(C)C)cc2C(c2cccc(OCCOCCOCC[n+]3ccn(CC)c3)c2)C1O (stereo not shown) [Example 1367] | 
27 | 0.063 µM | CCCCC1(CCCC)CS(=O)(=O)c2ccc(N(C)C)cc2C(c2cc(Cl)c(OC)c(Cl)c2)C1O (stereo not shown) [Example 1161] | 
28 | 0.003 µM | C=CC(=O)Nc1cccc(C2c3cc(N(C)C)ccc3S(=O)(=O)CC(CCCC)(CCCC)C2O)c1 (stereo not shown) [Example 1043] | 
29 | 0.007 µM | CCCCC1(CCCC)CS(=O)(=O)c2ccc(N(C)C)cc2C(c2cccc(OCCOCCOCC[N+]3=C4CCCCCN4CCC3)c2)C1O (stereo not shown) [Example 1104] | 
30 | 0.8 µM | C=COCCOCCOCCOc1ccc(C2c3cc(N(C)C)ccc3S(=O)(=O)CC(CCCC)(CCCC)C2O)cc1F (stereo not shown) [Example 1238] | 
31 | 0.002 µM | CCCCC1(CCCC)CS(=O)(=O)c2ccc(N(C)C)cc2C(c2cccc(OCCOCCOCC[n+]3cc4ccccn4c3)c2)C1O (stereo not shown) [Example 1030] | 
32 | 0.004 µM | CCCCC1(CCCC)CS(=O)(=O)c2ccc(N(C)C)cc2C(c2cccc(OCCOCCOCC[N+](CC)(CC)CCNC(=O)N(C)C)c2)C1O (stereo not shown) [Example 1372] | 
33 | 0.001 µM | CCCCC1(CCCC)CS(=O)(=O)c2ccc(N(C)C)cc2C(c2ccc(OC)c(F)c2)C1O (stereo not shown) [Example 1010] | 
34 | 0.075 µM | CCCCC1(CCCC)CS(=O)(=O)c2ccc(N(C)C)cc2C(c2ccc3cc(OC)ccc3c2)C1O (stereo not shown) [Example 1231] | 
35 | 0.008 µM | CCCCC1(CCCC)CS(=O)(=O)c2ccc(N(C)C)cc2C(c2ccc(OCc3ccccn3)c(F)c2)C1O (stereo not shown) [Example 1109] | 
36 | 0.26 µM | CCCCC1(CCCC)CS(=O)(=O)c2ccc(N(C)C)cc2C(c2ccc(OCC[N+](C)(C)C)cc2)C1O (stereo not shown) [Example 1303] | 
37 | 0.003 µM | CCCCC1(CCCC)CS(=O)(=O)c2ccc(N(C)C)cc2C(c2ccc(OCCOCC[N+]3(CC)CCCCC3)c(F)c2)C1O (stereo not shown) [Example 1059] | 
38 | 0.62 µM | CCCCC1(CCCC)CS(=O)(=O)c2ccc(N(C)C)cc2C(c2cccc3ccccc23)C1O (stereo not shown) [Example 1251] | 
39 | 0.003 µM | CCCCC1(CCCC)CS(=O)(=O)c2ccc(N(C)C)cc2C(c2ccc(OCCOCC[n+]3ccccc3)c(F)c2)C1O (stereo not shown) [Example 1049] | 
40 | 0.03 µM | CCCCC1(CCCC)CS(=O)(=O)c2ccc(N(C)CC)cc2C(c2cccc(OC)c2)C1O (stereo not shown) [Example 1150] | 
41 | 0.008 µM | CCCCC1(CCCC)CS(=O)(=O)c2ccc(N(C)C)cc2C(c2cccc(OCCOCCOCC[N+](CC)(CC)CCNP(C)(=O)c3ccccc3)c2)C1O (stereo not shown) [Example 1373] | 
42 | 0.001 µM | CCCCC1(CCCC)CS(=O)(=O)c2ccc(N(C)C)cc2C(c2ccc(OCCCCC[N+](CC)(CC)CC)c(F)c2)C1O (stereo not shown) [Example 1011] | 
43 | 0.0075 µM | CCCCC1(CCCC)CS(=O)(=O)c2ccc(N(C)C)cc2C(c2cccnc2)C1O (stereo not shown) [Example 1108] | 
44 | 0.031 µM | CCCCC1(CC)CS(=O)(=O)c2ccc(N(C)C)cc2C(c2ccc(OC)c(F)c2)C1O (single isomer, unassigned) [Example 1151] | 
45 | 0.17 µM | CCCCC1(CCCC)CS(=O)(=O)c2ccc(N(C)C)cc2C(c2ccc(CO)cc2)C1O (stereo not shown) [Example 1283] | 
46 | 0.002 µM | CCCCC1(CCCC)CS(=O)(=O)c2ccc(N(C)C)cc2C(c2cccc(OCCOCCOCC[N+](C)(C)CC(=O)O)c2)C1O (stereo not shown) [Example 1016] | 

— patent US6784201B2, “Benzothiepines having activity as inhibitors of ileal bile acid transport and taurocholate uptake” (G.D. Searle & Company, priority 1994, dated 2004)
